Marks after values point to notes of the source that are not given here.
What was measured:
[1] = system: human breast cancer carcinoma MT-3; experiment: Tumor growth inhibition, s.c. MT-3 xenografts in nude mice (doxorubicin conjugates); format: in vivo, NMRI:nu/nu mice; conditions: 8 mg/kg/inj. i.v.
Description: (§1) For all in vivo studies in which doxorubicin conjugates wer administred, adult female NMRI:nu/nu mice (TACONIC Europe, Lille Skensved, Denmark) were used throughout the study.
(§2) The human breast cancer carcinoma MT-3, human ovarian cancer carcinoma ovcar-3 and human mamma carcinoma MT3-ADR were used as s.c. xenotransplantation model in immunodeficient female […] mice (see table 17).
(§3) The cells were obtained from ATCC and are cryo-preserved within the EPO tumor bank. They were thawed, expanded in vitro and transplanted as cell suspension subcutaneously (s.c.) in female NMRI:nu/nu mice. The tumor lines MT-3, ovcar-3 and MT3-ADR are used for testing new anticancer drugs or novel therapeutic strategies. It was therefore selected for this study. MT-3, ovcar-3 and MT3-ADR xenografts are growing relatively fast and uniform.
(§4) For experimental use 5*10^6 to 10^7 tumor cells/mouse from the in vitro passage were transplanted s.c. into the flank of each of 10 mice/group at day 0.
(§5) At palpable tumor size (30-100 mm^3) treatment started. The application volume was 0.2 ml/20 g mouse body weight. The test compounds, the vehicle controls and the reference compounds were all given intravenously (i.v.).
(§6) Tumor growth inhibition was used as therapeutic parameter. Additionally, body weight change was determined as signs for toxicity (particularly, potential hematological or gastrointestinal side effects).
(§7) Tumor diameters were measured twice weekly with a caliper. Tumor volumes were calculated according to V=(length×(width)^2)/2. For calculation of the relative tumor volume (RTV) the tumor volumes at each measurement day were related to the day of first treatment. At each measurement day the median and mean tumor volumes per group and also the treated to control (T/C) values in percent were calculated (Table 10 to 15).
Descriptive statistics were performed on the data of body weight and tumor volume. […] Statistical evaluation was performed with the U-test of Mann and Whitney with a significance level of p≦0.05, using the Windows program […] 6.
The tested Doxorubicin conjugates CDx1 to CDx15 were obtained as described herein above and were kept in a freeze-dried form at −20° C. until the use. Before administration, the conjugates were dissolved in saline solution by vortexing in combination with centrifugation until a clear solution of the necessary concentration of the drug was obtained. The obtained solutions were prepared and injected under sterile conditions.
The reference compound was Doxorubicin (which is, for example, available as Doxorubicin NC® from Neocorp). Doxorubicin was stored in aliquots at 4° C. in the dark and diluted in saline before administration.
(§8) Tables 10 to 15 summarize the results for the tested, Doxorubicin conjugates and the reference compound Doxorubicin.

[2] = system: human mamma carcinoma MT3-ADR; experiment: Tumor growth inhibition, s.c. MT3-ADR xenografts in nude mice (doxorubicin conjugates); format: in vivo, NMRI:nu/nu mice; conditions: Table 14; 8 mg/kg/inj. i.v., treatment d 10
Description: as §1, §2, §3, §4, §5, §6, §7
(§9) Descriptive statistics were performed on the data of body weight and tumor volume. […] Statistical evaluation was performed with the U-test of Mann and Whitney with a significance level of p≦0.05, using the Windows program […] 6. […]

[3] = system: human ovarian cancer carcinoma ovcar-3; experiment: Tumor growth inhibition, s.c. ovcar-3 xenografts in nude mice (doxorubicin conjugates); format: in vivo, NMRI:nu/nu mice; conditions: Table 13; 8 mg/kg/inj. i.v., treatment d 5
Description: as §1, §2, §3, §4, §5, §6, §7, §9

[4] = Body weight change and toxic deaths in xenograft-bearing mice (doxorubicin studies); format: in vivo, NMRI:nu/nu mice; conditions: for Toxic deaths: 7 mice
Description: as §1, §5, §6
Individual body weights of mice were determined twice weekly and mean body weight per group was related to the initial value in percent (body weight change, BWC).
On the day of necropsy the mice were sacrificed by cervical dislocation and inspected for gross organ changes.
as §8
The loss of body weight is known to be an indicator of gastro-intestinal and hepatotoxicity of the tested compound.

[5] = system: human breast cancer carcinoma MT-3; experiment: Tumor growth inhibition, s.c. MT-3 xenografts in nude mice (epirubicin and idarubicin conjugates); format: in vivo, NMRI-nu/nu nude mice; conditions: MT-3 subtype obtained from a different laboratory; unmodified drug
Description: All experiments were performed using 5-6 weeks old female NMRI^−nu/nu nude mice (approximate weight: 30 g after acclimatization). Mice were maintained in individual ventilated cages (IVC, max. 3 mice/cage) at constant temperature and humidity. Animal weights were taken every other day (Monday, Wednesday and Friday). Animal behavior was monitored daily. At study end, animals were sacrificed and in case the tumor volume was measured a necropsy was performed.
Monolayers of MT-3 cells were grown in DMEM 4500 with phenol red supplement with 10% FCS, 1% L-Glutamine, 100 units penicillin/ml, and 100 μg of streptomycin/ml. MT-3 cells were cultured in a humidified atmosphere of 90% air and 10% carbon dioxide at 37° C. Media were routinely changed every 3 days.
For experimental use 5×10^6 to 10^7 tumor cells/mouse from the in vitro passage were transplanted s.c. into the flank of each of 10 mice/group at day 0.
At palpable tumor size (30-100 mm^3) treatment was started. The application volume was 0.2 ml/20 g mouse body weight. The test compounds, the vehicle controls and the reference compounds were all given intravenously (i.v.).
Tumor growth inhibition was used as therapeutic parameter. Additionally, body weight change was determined as signs for toxicity (particularly, potential hematological or gastrointestinal side effects). […]

[6] = Table 13, ovcar-3 model, 8 mg/kg/inj. i.v., treatment d 5
[7] = Table 14, MT3-ADR model, 8 mg/kg/inj. i.v., treatment d 10

For COc1cccc2c1C(=O)c1c(O)c3c(c(O)c1C2=O)C[C@@](O)(C(=O)CO)C[C@@H]3O[C@H]1C[C@H](N)[C@H](O)[C@H](C)O1 [Doxorubicin], the “T/C (%) (TV) at the end” value ([1]; Table 10, treatment d 7, 14) was 1.16 +/− 0.35%, the “T/C (%) Optimum” value ([1]; Table 10, treatment d 7, 14) was 32.2% and the “T/C (%) Optimum (at day)” value ([1]; Table 10, treatment d 7, 14) was “(18) day”. For the same molecule, the “Tumor growth RTV d 28” value ([1]; Table 10, treatment d 7, 14) was 10.8 +/− 3.7, the “T/C (%) Optimum” value ([1]; Table 11, treatment d 10) was 30% and the “T/C (%) Optimum (at day)” value ([1]; Table 11, treatment d 10) was “(21) day”. The “Tumor growth RTV d 28” value ([1]; Table 11, treatment d 10) was 4.3 +/− 3.4, the “RTV T/C (%) Optimum” value ([1]; Table 12, treatment d 7) was 39.2% and the “RTV T/C (%) Optimum (at day)” value ([1]; Table 12, treatment d 7) was “(29) day”. The “Tumor growth RTV d 33” value ([1]; Table 12, treatment d 7) was 5.59 +/− 0.78*, the “T/C (%) Optimum” value ([1]; Table 15, treatment d 7) was 37.8% and the “T/C (%) Optimum (at day)” value ([1]; Table 15, treatment d 7) was “(13) day”. For the same molecule, the “Tumor growth RTV d 20” value ([1]; Table 15, treatment d 7) was 8.1 +/− 2.1*, the “RTV T/C (%) Optimum” value [2] was 58.4% and the “RTV T/C (%) Optimum (at day)” value [2] was “(29) day”. For the same molecule, the “Tumor growth RTV d 31” value [2] was 15.3 +/− 5.9*, the “RTV T/C (%) Optimum” value [3] was 37.1% and the “RTV T/C (%) Optimum (at day)” value [3] was “(19) day”. The “Tumor growth RTV d 39” value [3] was 9.86 +/− 7.98, the “BWC (%) (d 10/d 28)” value ([4]; Table 11, MT-3 model, 8 mg/kg/inj. i.v., treatment d 10) was 2% and the “BWC [%] (at day)” value ([4]; Table 12, MT-3 model, 8 mg/kg/inj. i.v., treatment d 7) was “(19) day”. The “BWC [%]” value ([4]; Table 12, MT-3 model, 8 mg/kg/inj. i.v., treatment d 7, maximum body weight loss) was −2%, the “BWC [%] (at day)” value [4, 6] was “(7) day” and the Toxic deaths [4, 6] was 0. For the same molecule, the “BWC [%]” value ([4]; Table 13, ovcar-3 model, 8 mg/kg/inj. i.v., treatment d 5, maximum body weight loss) was −4%, the “BWC [%] (at day)” value [4, 7] was “(25) day” and the Toxic deaths [4, 7] was 0. For the same molecule, the “BWC [%]” value ([4]; Table 14, MT3-ADR model, 8 mg/kg/inj. i.v., treatment d 10, maximum body weight loss) was −8%, the “BWC (%) (d 7/d 20)” value ([4]; Table 15, MT-3 model, 8 mg/kg/inj. i.v., treatment d 7) was −6% and the “BWC (%): day of maximum body weight loss” value ([4]; mouse, in vivo, iv, 8 mg/kg) was “(d 24)”. The “BWC [%]” value ([4]; mouse, in vivo, iv, 8 mg/kg) was −8%.

In the case of COc1cccc2c1C(=O)c1c(O)c3c(c(O)c1C2=O)C[C@@](O)(C(=O)CO)C[C@@H]3O[C@H]1C[C@H](N)[C@@H](O)[C@H](C)O1 [Epirubicin], the “sensibility of the MT-3 subtype towards anthracycline therapy” value [5] is reported as “no sensibility towards anthracycline therapy”.

For CC(=O)[C@]1(O)Cc2c(O)c3c(c(O)c2[C@@H](O[C@H]2C[C@H](N)[C@H](O)[C@H](C)O2)C1)C(=O)c1ccccc1C3=O [Idarubicin], the “sensibility of the MT-3 subtype towards anthracycline therapy” value [5] was “no sensibility towards anthracycline therapy”.
